From patent publication US6350762B1, “Dihydropyridine derivative” (Ajinomoto Co., Inc., priority 1997, dated 2002)

Assays:
N-type calcium channel [1] = target: T1, N-type calcium channel (Rattus norvegicus, UniProt Q02294); assay: Inhibition activity of N-type calcium channel (patch clamp method), rat maxillary sympathetic ganglion cells; type: cell-based, Wistar rats; conditions: 0.1 uM compound, whole cell voltage clamp, barium current
T1 construct: from tissue; host or cells: acutely dissociated sympathetic ganglion cells of Wistar rats (2 to 4 weeks old)
Procedure: Inhibition Activity of N-type Calcium Channel (Patch Clamp Method)
1) Preparation of Cells of Maxillary Sympathetic Ganglions of Rats
The cervix of each of Wistar rats (2 to 4 weeks old) was opened to expose the maxillary ganglions under anesthesia with pentobarbital. A pair of the ganglions were removed and immediately washed with Ca^2+-free Tyrode solution cooled with ice. Each ganglion was cut into 3 or 4 pieces and kept in the Ca^2+-free Tyrode solution for 15 minutes. Then, these pieces were treated with papain [Washington Biochemicals (lot#35J557); 20 U/ml] for 20 minutes and then with a mixture of 2-type collagenase [Washington Biochemicals (CLS2); 5900 U/ml]and dispase [Calbiochem (lot#1312973); 16 mg/ml] for one hour. After enzymatic treatment, the ganglion cells were mechanically isolated by pipetting. The isolated ganglion cells were used for the experiments within 6 hours.
2) Determination of Calcium Electric Current
The calcium electric current was determined by the whole cell voltage clamp method under the fixed membrane potential. The pipette electrode was pulled from glass tube (inner diameter: 1.5 mm; Narishige) in two stage of a vertical pipette puller (PB-7; Narishige). The ionic current was amplified with a patch amplifier (CEZ-2300; Nihon Kohden Corporation). The noises were cut at 10 kHz (E-3201B, NF Electronic Instrument) and then the ionic current was monitored on a storage oscilloscope (DS-9121, Iwatsu) and, at the same time, recorded with a DAT data recorder (RD-120TE, TEAC). Then it was passed through a 1 kHz filter and recorded in a computer (Compaq DeskPro) with pCLAMP software (Axon Instrument) of 3 kHz. All the experiments were performed at room temperature (25±2° C.). In the measurement of the current through the calcium channel, 10 mM barium (composition of the solution: shown below) was used in place of calcium as the charge carrier. The transmission of barium through the calcium channel was higher than that of calcium in the sympathetic ganglion cells, and the calcium-dependent channel inactivation was slight when barium was used.
The test compounds were rapidly administered by Y-tube method by Murase et al. [Brain Res. 525, 84 (1990)]. Each compound was dissolved in DMSO preparing 10 mM mother solution. At the highest drug concentration used, the vehicle (0.1%) had no significant effect on the calcium electric current.
Composition of Normal Tyrode's solution: NaCl; 143, KCl; 4, MgCl2; 0.5; CaCl2; 1.8, glucose; 5.5, NaH2PO4; 0.33, HEPES; 5 (Mm). The pH was adjusted to 7.4 with tris-OH.
Composition of Ca-free Tyrode's solution: the same as that of the Normal Tyrode's solution except that it was free of CaCl2.
External solution for the determination of calcium electric current (mM): TEACl; 144, CsCl;. […]

L-type calcium channel = target: T2, L-type calcium channel (Rattus norvegicus, UniProt P22002); assay: Activity of inhibiting L-type calcium channel: relaxation of KCl contraction of isolated rat thoracic aorta; parameters: species or system Wistar rats; conditions: for IC50: KCl contraction of isolated rat thoracic aorta, read-out: L-type inhibition IC50
T2 construct: The slips of thoracic aorta extracted from Wistar rats were used; from tissue; host or cells: isolated thoracic aorta rings of Wistar rats, endothelium removed
Procedure: Activity of Inhibiting the Action of L-type Calcium Channel
The activity of the dihydropyridine derivatives of the present invention to inhibit the action of L-type calcium channel was determined by the following method wherein the relaxation reaction on the KCl contraction of isolated thoracic aorta samples of rats was utilized.
1) Preparation of Isolated Thoracic Aorta Samples of Rats
The slips of thoracic aorta extracted from Wistar rats were used. Blood vessels were cut to form rings having a width of about 3 mm. The endothelial cells of the blood vessels were mechanically removed. The samples were suspended in a strain gauge in Tyrode solution (comprising 158.3 mM of NaCl, 4.0 mM of KCl, […] of MgCl2, 0.42 mM of NaH2PO4, 10 mM of NaHCO3, 2 mM of CaCl2 and 5 mM of glucose) in which a gaseous mixture of O2 (95%) and CO2 (5%) was introduced, to apply a stationary tension of 2 g. The tension of the blood vessel was recorded with a multipen recorder (Rikadenki Kogyo Co., Ltd.) by using a transducer after the amplification with a tension amplifier (EF-601G; Nihon Kohden Corporation). The experiments were conducted at 37° C.
2) Determination of Relaxation Reaction Against KCl contraction
After the tension was stabilized, the nutrient solution in the sample tank was replaced with High K^+ Tyrode solution (comprising 112.3 mM of NaCl, 50 mM of KCl, 1.05 mM of MgCl2, 0.42 mM of NaH2PO4, 10 mM of NaHCO3, 2 mM of CaCl2 and 5 mM of glucose) to cause the contraction reaction. 30 minutes after, the solution in the sample tank was replaced with normal Tyrode solution. Then, the solution in the sample tank was again replaced with High K^+ Tyrode solution and the contraction reaction was observed. After the maximum contraction reaction occurred, a test compound was cumulatively added to realize concentrations of 10^−9, 10^−8, 10^−7 and 10^−6 M at intervals of 90 minutes. The inhibition rate of the test compound on the maximum contraction reaction was employed as the index of the activity of inhibiting the action of L-type calcium channel.

N-type calcium channel [2] = target: T3, N-type calcium channel (Homo sapiens, UniProt Q00975); assay: Activity of inhibiting N-type calcium channel (fluorescent dye method), IMR-32 cells; type: cell-based; conditions: fluorescent dye (fura-2) method, 60 mM KCl stimulation, 1 μM Nifedipine present; for IC50: read-out: N-type inhibition pIC50 (converted)
T3 construct: Human neuroblastoma cell IMR-32 was obtained from ATCC (American Type Culture Collection); host or cells: IMR-32 human neuroblastoma cells, differentiated with dibutyl cAMP and bromodeoxyuridine
Procedure: Activity of Inhibiting the Action of N-type Calcium Channel (Fluorescent Dye Method):
Human neuroblastoma cell IMR-32 was obtained from ATCC (American Type Culture Collection). The culture medium was prepared by adding 2 mM of L-glutamine (GIBCO), 1 mM of sodium pyruvate of pH 6.5 (GIBCO), a liquid antibiotic/antimicotic mixture (GIBCO) and 10% fetal calf serum (Cell Culture Technologies) to an Eagle minimum essential medium (GIBCO) free of Phenol Red and containing earle's salts supplyment. 3 ml of 1×10^5/ml IMR-32 cells was spread on a glass dish (Iwaki Glass Co., Ltd.) having a bottom diameter of 35 mm, which had been treated with poly-D-lysine (SIGMA) and also with collagen (COLLAGEN VITROGEN 100; a product of Collagen Co.). After the culture for 2 days, 1 mM (final concentration) of dibutyl cAMP and 2.5 μM of bromodeoxyuridine (SIGMA) were added to the culture mixture. After the culture for additional 10 to 14 days, the cells were used for the activity determination. The IMR-32 cell medium prepared as described above was replaced with Eagle minimum essential medium (GIBCO) containing 1 ml of 10 μM fura-2/AM (Dojin Kagaku Co.) and earle's salts supplyment but free of Phenol Red, and the incubation was conducted at 25° C. for one hour.
Then the medium was replaced with fura-2/AM-free Eagle minimum essential medium (GIBCO) free of Phenol Red and containing earle's salts supplyment. After conducting the incubation at 37° C. for one hour, the medium was replaced with a recording medium (comprising 20 mM of HEPES-KOH, 115 mM of NaCl, 5.4 mM of KCl, 0.8 mM of MgCl2, 1.8 mM of CaCl2 and 13.8 mM of D-glucose). The N-calcium channel inhibition activity was determined and analyzed with a fluorescent microscope (Nikon corporation) and an image analysis apparatus ARGUS 50 (Hamamatsu Photonics). Namely, a recording medium (comprising 20 mM of HEPES-KOH, 115 mM of NaCl, 5.4 mM of KCl, 0.8 mM of MgCl2, 1.8 mM of CaCl2 and 13.8 mM of D-glucose) containing 1 μM of Nifedipine was applied to the cells and refluxed by Y-tube method for 2 minutes. Then, a 60 mM potassium chloride-containing stimulating agent was rapidly given. Thereafter, 60 mM potassium chloride-containing stimulating agents which further contained 0.1, 1 or 10 μM of a test compound were rapidly and successively administered by Y-tube method to determine the channel inhibition activity. Finally, 60 mM potassium chloride-containing stimulating agent further containing 1 μM of omega conotoxin (Peptide Kenkyu-sho) was rapidly given by Y-tube method to realize 100% inhibition of the N-type calcium channel.

[3] = 10^−7 M compound, inhibition rate on maximum KCl contraction of rat thoracic aorta

T3 sequence (Q00975 whole entry): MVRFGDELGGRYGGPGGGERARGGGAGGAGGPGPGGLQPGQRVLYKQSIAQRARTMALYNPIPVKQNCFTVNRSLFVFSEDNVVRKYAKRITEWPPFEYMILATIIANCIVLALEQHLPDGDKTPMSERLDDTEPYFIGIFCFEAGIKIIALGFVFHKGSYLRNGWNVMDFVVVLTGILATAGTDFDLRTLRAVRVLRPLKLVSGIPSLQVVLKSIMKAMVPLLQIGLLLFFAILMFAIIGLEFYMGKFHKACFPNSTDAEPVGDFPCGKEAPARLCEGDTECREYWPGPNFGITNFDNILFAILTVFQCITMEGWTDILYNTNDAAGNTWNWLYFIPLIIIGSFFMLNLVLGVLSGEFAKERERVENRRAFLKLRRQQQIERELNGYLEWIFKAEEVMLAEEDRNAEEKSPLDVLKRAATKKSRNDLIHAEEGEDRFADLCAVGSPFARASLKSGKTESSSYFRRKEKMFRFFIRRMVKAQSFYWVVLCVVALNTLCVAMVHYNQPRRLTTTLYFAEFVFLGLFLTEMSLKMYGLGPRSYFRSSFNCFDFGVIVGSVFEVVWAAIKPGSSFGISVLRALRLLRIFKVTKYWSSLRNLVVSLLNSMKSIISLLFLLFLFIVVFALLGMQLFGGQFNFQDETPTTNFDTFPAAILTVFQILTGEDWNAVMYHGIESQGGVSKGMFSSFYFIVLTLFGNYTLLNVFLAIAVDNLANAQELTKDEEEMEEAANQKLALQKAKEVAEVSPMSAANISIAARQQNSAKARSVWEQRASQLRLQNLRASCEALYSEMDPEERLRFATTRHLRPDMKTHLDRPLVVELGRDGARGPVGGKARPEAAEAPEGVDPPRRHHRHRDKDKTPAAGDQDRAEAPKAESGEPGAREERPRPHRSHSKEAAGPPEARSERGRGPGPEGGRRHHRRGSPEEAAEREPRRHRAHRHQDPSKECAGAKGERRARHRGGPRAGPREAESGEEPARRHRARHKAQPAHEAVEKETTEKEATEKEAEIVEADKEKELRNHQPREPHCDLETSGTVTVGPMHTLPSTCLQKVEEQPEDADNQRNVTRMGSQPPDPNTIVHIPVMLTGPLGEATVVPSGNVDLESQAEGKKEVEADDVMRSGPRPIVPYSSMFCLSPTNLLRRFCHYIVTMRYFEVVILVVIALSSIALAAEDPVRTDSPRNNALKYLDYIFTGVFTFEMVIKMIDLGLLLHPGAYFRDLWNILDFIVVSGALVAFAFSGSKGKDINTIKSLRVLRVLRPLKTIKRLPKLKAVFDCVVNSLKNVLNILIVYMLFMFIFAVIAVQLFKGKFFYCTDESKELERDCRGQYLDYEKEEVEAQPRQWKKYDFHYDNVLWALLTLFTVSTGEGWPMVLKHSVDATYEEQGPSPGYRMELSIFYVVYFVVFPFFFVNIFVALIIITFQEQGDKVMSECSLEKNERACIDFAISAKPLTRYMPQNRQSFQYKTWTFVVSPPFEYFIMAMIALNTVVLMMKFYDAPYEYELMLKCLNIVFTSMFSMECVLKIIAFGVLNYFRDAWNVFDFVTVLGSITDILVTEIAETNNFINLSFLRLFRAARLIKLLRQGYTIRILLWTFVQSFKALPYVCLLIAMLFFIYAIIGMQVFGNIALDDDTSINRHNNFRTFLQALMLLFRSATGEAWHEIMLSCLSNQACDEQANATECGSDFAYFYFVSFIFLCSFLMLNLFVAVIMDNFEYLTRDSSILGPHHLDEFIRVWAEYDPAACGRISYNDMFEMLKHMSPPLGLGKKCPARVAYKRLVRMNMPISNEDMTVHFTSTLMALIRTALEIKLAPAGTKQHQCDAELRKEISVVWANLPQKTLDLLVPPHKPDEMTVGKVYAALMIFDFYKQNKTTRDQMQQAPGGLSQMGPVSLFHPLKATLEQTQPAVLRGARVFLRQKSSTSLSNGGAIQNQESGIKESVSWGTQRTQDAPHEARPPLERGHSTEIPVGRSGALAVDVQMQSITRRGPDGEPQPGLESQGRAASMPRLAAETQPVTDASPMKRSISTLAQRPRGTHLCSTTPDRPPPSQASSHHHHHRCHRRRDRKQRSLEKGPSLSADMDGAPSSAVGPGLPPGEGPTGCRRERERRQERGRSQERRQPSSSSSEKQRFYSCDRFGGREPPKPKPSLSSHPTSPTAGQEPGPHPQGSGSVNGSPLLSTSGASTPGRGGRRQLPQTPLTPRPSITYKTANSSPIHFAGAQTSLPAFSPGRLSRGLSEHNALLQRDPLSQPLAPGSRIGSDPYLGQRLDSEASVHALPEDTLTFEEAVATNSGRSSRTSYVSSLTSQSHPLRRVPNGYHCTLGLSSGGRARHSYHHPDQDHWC
T3 sequence (P54289 25-956 partner limits assumed): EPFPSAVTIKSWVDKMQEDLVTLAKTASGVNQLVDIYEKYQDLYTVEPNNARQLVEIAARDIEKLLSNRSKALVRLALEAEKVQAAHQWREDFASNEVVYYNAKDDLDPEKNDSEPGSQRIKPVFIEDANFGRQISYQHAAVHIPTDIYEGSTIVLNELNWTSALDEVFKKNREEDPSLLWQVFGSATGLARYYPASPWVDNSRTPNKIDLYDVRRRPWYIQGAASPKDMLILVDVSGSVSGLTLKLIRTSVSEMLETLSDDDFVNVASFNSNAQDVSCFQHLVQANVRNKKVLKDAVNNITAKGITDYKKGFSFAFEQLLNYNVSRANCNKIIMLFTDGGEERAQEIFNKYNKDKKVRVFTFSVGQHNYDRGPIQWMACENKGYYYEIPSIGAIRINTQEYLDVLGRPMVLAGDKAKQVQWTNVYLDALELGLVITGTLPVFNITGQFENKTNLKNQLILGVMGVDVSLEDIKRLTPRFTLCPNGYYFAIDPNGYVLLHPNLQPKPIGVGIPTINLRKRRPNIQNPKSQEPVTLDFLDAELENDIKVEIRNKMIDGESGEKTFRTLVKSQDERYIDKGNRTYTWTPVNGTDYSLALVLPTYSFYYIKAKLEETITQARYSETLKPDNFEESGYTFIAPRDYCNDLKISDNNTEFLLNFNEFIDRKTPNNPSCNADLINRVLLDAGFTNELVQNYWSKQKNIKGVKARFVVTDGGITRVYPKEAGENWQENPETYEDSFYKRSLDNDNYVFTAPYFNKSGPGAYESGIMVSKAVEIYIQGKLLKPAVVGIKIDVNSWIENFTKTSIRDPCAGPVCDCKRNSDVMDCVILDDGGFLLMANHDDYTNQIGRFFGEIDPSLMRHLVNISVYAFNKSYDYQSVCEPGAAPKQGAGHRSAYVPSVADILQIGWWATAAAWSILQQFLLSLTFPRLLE
T3 sequence (P54289 957-1103 partner limits assumed): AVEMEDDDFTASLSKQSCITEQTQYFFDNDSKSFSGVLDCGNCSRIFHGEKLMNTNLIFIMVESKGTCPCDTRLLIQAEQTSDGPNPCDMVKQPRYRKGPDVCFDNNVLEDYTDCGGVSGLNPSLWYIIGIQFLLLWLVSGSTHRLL
T3 sequence (P54284 whole entry partner): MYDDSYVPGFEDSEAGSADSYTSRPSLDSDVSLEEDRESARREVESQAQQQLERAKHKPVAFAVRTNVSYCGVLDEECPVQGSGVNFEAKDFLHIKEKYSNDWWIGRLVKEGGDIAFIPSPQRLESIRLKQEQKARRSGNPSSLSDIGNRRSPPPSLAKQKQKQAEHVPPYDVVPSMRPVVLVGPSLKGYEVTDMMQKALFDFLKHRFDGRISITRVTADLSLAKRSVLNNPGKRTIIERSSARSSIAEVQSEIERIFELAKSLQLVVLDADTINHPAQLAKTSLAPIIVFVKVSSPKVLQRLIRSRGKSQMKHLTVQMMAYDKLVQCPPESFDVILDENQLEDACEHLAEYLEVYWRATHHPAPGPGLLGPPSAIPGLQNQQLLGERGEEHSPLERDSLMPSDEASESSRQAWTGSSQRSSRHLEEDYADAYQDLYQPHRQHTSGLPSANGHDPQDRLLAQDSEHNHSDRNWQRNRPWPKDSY

inhibition at 0.1 µM (N-type calcium channel [1]) [%]	inhibition at 0.1 µM (L-type calcium channel; [3]) [%]	IC50 (L-type calcium channel) [nM]	IC50 (N-type calcium channel [2]) [nM]	N-type inhibition 0.1 uM (%) (N-type calcium channel [1])	L-type inhibition 10^−7 M (%) (L-type calcium channel; [3])	N-type inhibition pIC50 (N-type calcium channel [2])	Compound
–	–	–	794	–	–	–	CC1=C(C(=O)O)C(c2cccc(Cl)c2)C(C(=O)NCC(=O)Nc2ccccc2)=C(C)N1 (stereo not shown) [Example 21, 4-(3-chlorophenyl)-2,6-dimethyl-5-(phenylcarbamoylmethylcarbamoyl)-1,4-dihydropyridine-3-carboxylic acid]
–	–	–	631	–	–	–	CC1=C(C(=O)O)C(c2cccc(Cl)c2)C(C(=O)NCCC(c2ccccc2)c2ccccc2)=C(C)N1 (stereo not shown) [Example 34, 4-(3-chlorophenyl)-2,6-dimethyl-5-(3,3-diphenylpropylcarbamoyl)-1,4-dihydropyridine-3-carboxylic acid]

Continued, compound first:

Compound	inhibition at 0.1 µM (N-type calcium channel [1]) [%]	inhibition at 0.1 µM (L-type calcium channel; [3]) [%]	IC50 (L-type calcium channel) [nM]	IC50 (N-type calcium channel [2]) [nM]	N-type inhibition 0.1 uM (%) (N-type calcium channel [1])	L-type inhibition 10^−7 M (%) (L-type calcium channel; [3])	N-type inhibition pIC50 (N-type calcium channel [2])
CC1=C(C(=O)O)C(c2cccc(Cl)c2)C(C(=O)NCC=Cc2ccccc2)=C(C)N1 (stereo not shown) [Example 1, 4-(3-chlorophenyl)-2,6-dimethyl-5-(3-phenyl-2-propene-1-ylcarbamoyl)-1,4-dihydropyridine-3-carboxylic acid]	35	19	> 1000	5010	–	–	–
CC1=C(C(=O)O)C(c2cccc([N+](=O)[O-])c2)C(C(=O)NC/C=C/c2ccccc2)=C(C)N1 (stereo not shown) [Example 4, 2,6-dimethyl-4-(3-nitrophenyl)-5-(3-phenyl-2-propene-1-ylcarbamoyl)-1,4-dihydropyridine-3-carboxylc acid]	16	-7	914	1580	–	–	–
CC1=C(C(=O)O)C(c2cccc(C#N)c2)C(C(=O)NCC=Cc2ccccc2)=C(C)N1 (stereo not shown) [Example 10, 4-(3-cyanophenyl)-2,6-dimethyl-5-(3-phenyl-2-propene-1-ylcarbamoyl)-1,4-dihydropyridine-3-carboxylic acid]	–	–	–	2510	–	–	–
CC1=C(C(=O)O)C(c2ccc([N+](=O)[O-])cc2)C(C(=O)NCC=Cc2ccccc2)=C(C)N1 (stereo not shown) [Example 17, 2,6-dimethyl-4-(4-nitrophenyl)-5-[(3-phenyl-2-propene-1-yl)carbamoyl]-1,4-dihydropyridine-3-carboxylic acid]	16	-6	> 1000	1580	–	–	–
(3-phenyl-2-propene-1-yl) 4-(3-chlorophenyl)-5-cyano-2,6-dimethyl-1,4-dihydropyridine-3-carboxylate [Example 12]	–	–	220	–	24	21	5.9
